Results published in patent US20140309295A1, “ANTIEPILEPTIC, HYPOCHOLESTEROLEMIC AND NEUROPROTECTIVE COMPOUND” (NEURON BIOPHARMA, S.A., priority 2009, published 2014).

Assays:
[1] = test system: FVB/NHan mice inoculated with kainate (KA); assay: Integral memory test (temporal and spatial memory) in mice after kainate; type: in vivo
Method: All the animals included for the experimental process were 12-week old males of the FVB/NHan strain. The experiments were conducted strictly following the Guidance on the Operation of Animals (Scientific Procedures, Act. 1986). The animals had their respective quarantine period and were treated with maximum precaution to minimize possible contaminations for inoculations and handling.
Twenty-eight animals were used in this assay and the treatments were all conducted by intraperitoneal (i.p.) route with a volume of 100 μl, according to the following regimens: • i) PBS+PBS+PBS regimen: 4 animals were initially treated with PBS with a daily dose for 2 days, on the second day the animals were inoculated with a new dose of PBS and for the following 3 days with a daily dose of PBS. • ii) PBS+KA+PBS regimen: 6 animals were initially treated with PBS with a daily dose for 2 days, on the second day the animals were inoculated with a dose of kainate at 25 mg/Kg and for the following 3 days with a daily dose of PBS. • iii) PBS+KA+NST0037 regimen: 7 animals were initially treated with PBS with a daily dose for 2 days, on the second day the animals were inoculated with a dose of kainate at 25 mg/Kg and for the following 3 days with a daily dose of NST0037 at 50 mg/kg. • iv) NST0037+KA+NST0037 regimen: 6 animals were initially treated with a daily dose for 2 days with NST0037 at 50 mg/kg, on the second day the animals were inoculated with a dose of kainate at 25 mg/Kg and for the following 3 days with a daily dose of NST0037 at 50 mg/kg. • v) NST0037+PBS+NST0037 regimen: 5 animals were initially treated with a daily dose for 2 days with NST0037 at 50 mg/kg, on the second day the animals were inoculated with a dose of PBS and for the following 3 days with a daily dose of NST0037 at 50 mg/kg.
Three days after inoculation of KA, an object recognition test called integral memory test was performed on the animals.

[2] = test system: human neuroblastoma SK-N-MC cells; assay: Protection against neuronal death induced by oxidative stress (xanthine/xanthine oxidase), WST-1; type: cell-based
Method: The assay was performed on human neuroblastoma SK-N-MC cells in culture from the American Type Culture Collection (ATCC), in all cases strict rules of sterility were followed and the manipulation was performed in class II biological safety cabinets following European standard EN 12469. The cells were maintained in the following culture medium: Minimum Essential Medium Eagle (MEM) supplemented with 1 mM sodium pyruvate, 2 mM L-glutamine, 0.1 mM non-essential amino acids, 0.05 mg/ml gentamicin and 10% fetal bovine serum.
The inhibition caused by compound NST0037 of cell death caused by treatment with xanthine/xanthine oxidase which generates oxidative damage (causes free radicals such as hydrogen peroxide, superoxide anion, hydroxyl radical), which triggers cell death, was analyzed. These cells, not exceeding 15 passages, were seeded on 96-well plates treated for adherent cells with a cell concentration of 5×10^4 cells/well; 3 wells of the plate were seeded for each condition of the assay.
After 24 hours of cell incubation at 37° C. and 5% CO2, the cell treatments were performed with 100 μl of total volume for the following conditions: • Control: culture medium (medium) • Xanthine/xanthine oxidase (XXO): medium plus 10 μM xanthine/60 mU/mL xanthine oxidase, causing the death of 50% of the cells. • XXO plus NST0037: medium plus XXO (10 μM/60 mU/mL) plus NST0037 at 1, 4, 10, 20, 40 or 100 μM.
The cells were incubated (at 37° C. and 5% CO2) with these treatments for 22 hours, after which time the WST-1 reagent (Roche) was added. The Test WST-1 is based on the measurement of metabolic activity. Cell damage causes the loss of the ability of cells to obtain the energy necessary to maintain their metabolic functions and cell growth, therefore the metabolically active (live) cells reduce tetrazolium salt to formazan by means of the succinate-tetrazolium reductase system (of the mitochondrial respiratory chain). The formazan which is formed can be detected colorimetrically since it has an absorbance of 440 nm. The reading was taken in a plate reader at 440 nm 2 hours after adding the reagent.
The assay was performed on human neuroblastoma SK-N-MC cells in culture from the American Type Culture Collection (ATCC), in all cases strict rules of sterility were followed and the manipulation was performed in class II biological safety cabinets following European standard EN 12469. […]
The effect of mevalonate on the protection caused by compound NST0037 against cell death caused by the treatment with xanthine/xanthine oxidase generating oxidative damage and cell death was analyzed. […]

Which results are given for `CCC(CC)C(=O)O[C@H]1C[C@@H](C)C=C2C=C[C@H](C)[C@H](CC[C@@H]3C[C@@H](O)CC(=O)O3)[C@H]21` [NST0037, (1S,2S,6R,8S,8aR)-1,2,6,7,8,8a-hexahydro-3,7-dimethyl-8-[2-[(2R,4R)-tetrahydro-4-hydroxy-6-oxo-2H-pyran-2-yl]ethyl]-1-naphthalenyl-2-ethyl-butyrate]?
spatial memory ([1]; NST0037+KA+NST0037 regimen, 50 mg/kg i.p.): spatial memory is intact; temporal memory ([1]; NST0037+KA+NST0037 regimen, 50 mg/kg i.p., 3 days after KA): prevented the reduction in the temporal memory capacity; spatial memory ([1]; NST0037+PBS+NST0037 regimen): spatial memory is intact; temporal memory ([1]; NST0037+PBS+NST0037 regimen, vs PBS+PBS+PBS): improvement of the temporal memory; spatial memory ([1]; PBS+KA+NST0037 regimen, 50 mg/kg i.p.): improvement of this type of memory; temporal memory ([1]; PBS+KA+NST0037 regimen, 50 mg/kg i.p., 3 days after KA): improvement of the state of the temporal memory; maximum protection against death caused by XXO ([2]; 20 μM NST0037, 10 μM xanthine/60 mU/mL xanthine oxidase, 22 h): 78%; protection against death caused by XXO ([2]; 40 μM NST0037 (Example 14)): 57%
